# In EP0385952A2, “Use of a naphthalenmethanamino derivative as antiinflammatory agent and pharmaceutical compositions containing it” (SANDOZ AG, priority 1989, dated 1990):
# Where two headings read alike, the source gives them in different places. Marks after values point to notes of the source that are not given here.
# Experiments:
# mast cells = test: Polymyxin-stimulated release from mast cells; format: cell-based; details: Mast cell
# [1] = tested on: Macrophages isolated from the bone marrow of mice; test: Inhibition of Con A-stimulated plasminogen activator release; format: cell-based; details: Mus musculus, Macrophage; Con A 100 µg/ml, 24 hours; read-out: IC₅₀, Con A-stimulated plasminogen activator release
# Experimental: Macrophages 10 to 14 days old isolated from the bone marrow of mice are incubated in monolayers with the test compound in the presence of Concanavalin A (Con A) (100 µg/ml) as soluble stimulant. After 24 hours the cell-free medium is collected and macrophage activation is investigated biochemically as the extent of plasminogen activator release, assayed photometrically as the plasminogen-dependent amidolysis of D-Val-Phe-Lys-4-nitroanilide according to the principles described in J.C. Drapier et al., Biochemie 61 (1979) 463-471. Cell viability is assayed by measurement of lactate dehydrogenase release according to the method of H.U. Bergmeyer and E. Bernt, Methoden der Enzymatischen Analyse, 3. Auflage, Verlag Chemie (1974) 612-615, adapted as a kinetic assay using microtiter plates. All cultures are checked microscopically for qualitative morphological modification.
# neutrophils = test: Neutrophil exocytosis assay (FMLP-stimulated enzyme release); format: cell-based
# [2] = tested on: Peritoneal exudate cells of NMRI mice (macrophage population); test: TPA-induced prostaglandin E₂ (PGE₂) release; format: cell-based; details: Mus musculus, TPA 20 ng/ml, 1h, read-out: IC₅₀ for the inhibition of TPA-induced PGE₂ release
# Experimental: Peritoneal exudate cells of NMRI mice (strain NMRI) pretreated with 1.5 ml thioglycollate ip 3 days previously are harvested by peritoneal lavage, washed in phosphate-buffered saline (PBS without Ca⁺⁺ and Mg⁺⁺) and resuspended in DMEM medium supplemented with 10 % fetal calf serum (FCS). 1x10⁶ cells in 1 ml are placed into wells of Costar-24 tissue culture plates and cells are allowed to adhere for 24 hours at 37°C and 5 % CO₂. Cells are then washed twice with PBS and the remaining, more than 95 % pure macrophage population is stimulated with 12-O-tetradecanoylphorbol-13-acetate (TPA) (20 ng/ml, 1h) in DMEM medium without FCS. Conditioned media are centrifuged and PGE₂ levels are determined using a ¹²⁵I radioimmunoassay. Samples are assayed in duplicate. Inhibition of PGE₂ release by test compounds is calculated as percent inhibition compared to the controls.
# [3] = tested on: human cell line Mono-Mac-6; test: LPS-induced NAP1/IL-8, αTNF- and IL-1β-mRNA accumulation (RNA blotting); format: cell-based
# Experimental: Human Mono-Mac-6 cells, which have many of the phenotypic and functional characteristics of mature peripheral blood monocytes [H. Ziegler et al, Int. J. Cancer 41 (1988) 456-461] are grown up to 10⁶ cells/ml im RPMI 1640 medium supplemented with 10 % FCS, 1 % pen/strep and 0.25 % amphotericin. In each of 6 activation experiments 10⁷ cells are incubated for 4 hours at 37°C and 5 % CO₂. LPS is used in a concentration of 1 µg/ml and the test substance in concentrations of 10⁻⁵ M to 10⁻⁷ M.
# After induction times the cells are pelleted [5 min, 1200 rpm, room temperature]. Total cellular RNA is extracted from the pelleted cells using the guanidinium isothiocyanate/cesium chloride method of J.M. Chirgwin et al., Biochemistry 18 (1979) 5294-5299. 10 µg samples of the extracted RNA are size-fractionated by 1.2 % formaldehyde agarose gel electrophoresis [T. Maniatis et al., Molecular Cloning: A Laboratory Manual, Cold Spring Harbour, New York (1982) p. 187-206], transferred to synthetic membranes (Hybond N, Amersham) with 20xSSC (1xSSC is 150 mM NaCl, 15 mM sodium citrate, pH 7.0) overnight. The filters are baked for 2 hours at 65°C and prehybridized for 4 hours at 65°C in 5xSSC, 10x Denhardt's solution (1x Denhardt's solution is 0.02 % bovine serum albumin, 0.02 % polyvinyl pyrrolidone, 0.02 % ficoll), 10 % dextrane sulphate, 20 mM sodium phosphate pH 7.0, 7 % SDS, 100 µg/ml sonicated salmon sperm DNA, and 100 µg/ml polyA. ³²P-labelled synthetic NAP1/IL8, αTNF and IL-1β oligonucleotide probes are used as the hybridization probes. Hybridization is performed at 65°C in the pre-hybridization buffer containing the labelled probe for 16 hours. The blots are washed once in 5 % SDS, 3xSSC, 10x Denhardt's solution, 20 mM sodium phosphate pH 7.0 for 30 minutes at 65°C, and once in 1xSSC, 1 % SDS at 65°C for 30 minutes. Filters are exposed at -70°C to KODAK XAR-5 films using intensifying screens. After washing for 30 minutes in 0.1 % SDS at 65°C, blots are reused for a second hybridization with a β-actin specific oligonucleotide probe to quantitate the mRNA amounts.
# 5,12-lipoxygenase = 5,12-lipoxygenase inhibition (neutrophil functions); format: cell-based; details: read-out: IC₅₀ for 5,12-lipoxygenase
# NMRI mice = test: Cantharidin-induced pinnal swelling in mice (irritant contact dermatitis, 2.1.1.); format: in vivo; details: epicutaneous, pinnal weight
# Experimental: Skin irritation with arachidonic acid or cantharidin is often used to experimentally induce inflammation in order to evaluate the anti-inflammatory activity of a compound [see e.g. Inflammation 8 (1984) 134-135; 10 (1986) 205-214]. NMRI mice (8 animals per group) receive 10 µl of a 10 % solution of arachidonic acid [J.M. Young et al., J. Invest. Derm. 82 (1986) 367-371] in acetone or, respectively, 0.08 % cantharidin [K.E. Swingle et al., Arch. Int. Pharmacodyn. Ther. 254 (1981) 168-176] in acetone applied to the medial and lateral surface of the right external ear. Treatment is performed either prophylactically 30 minutes before irritation (arachidonic acid) or, respectively, either simultaneously with the application of irritant solution or therapeutically 20 minutes after irritation (cantharidin), by a single epicutaneous application of the test compound dissolved in a mixture of N,N-dimethylacetamide, acetone and alcohol (2:2:4). The evaluation of the test group is effected by comparison with a control group of animals having received on the right ear lobe only the carrier substance or the irritant solution. The animals are killed 1.5 hours (arachidonic acid) or, respectively, 17 hours (cantharidin) after application of the irritant and efficacy in assessed by determination of the differences in auricular weight. Differences in weights (D) of right (involved) and left (uninvolved) pinnae of animals treated with test compound and arachidonic acid or cantharidin (T-group) are compared with differences in mice treated with arachidonic acid only or cantharidin only (C-group). Efficacy (%) is calculated according to the equation: [formula]
# [4] = remaining level, 10.0 µM, LPS 1 µg/ml, 4 hours
smiles,measurement,setting,value
"CN(C/C=C/c1ccc(O)cc1)Cc1cccc2ccccc12 [compound of the invention, (E)-N-methyl-N-[3-(4-hydroxyphenyl)-2-propenyl]-1-naphthalene-methanamine]",IC50,mast cells; read-out: IC₅₀ for polymyxin-stimulated release of histamine,> 100 µM
same,IC50,mast cells; read-out: IC₅₀ for polymyxin-stimulated release of β-glucosaminidase,> 100 µM
same,IC50,[1],1800 nM
same,IC50,neutrophils; read-out: IC₅₀ for FMLP-stimulated release of azurophil granule enzymes,> 100 µM
same,IC50,neutrophils; read-out: IC₅₀ for FMLP-stimulated release of lysosomal enzymes,> 100 µM
same,IC50,neutrophils; read-out: IC₅₀ for FMLP-stimulated release of specific granule enzymes,> 100 µM
same,IC50,[2],1000 to 3000 nM
same,"concentration inhibiting lps-induced transcription of nap-1/il-8, αtnf and il-iβ","[3]; mono-mac 6 cell line, summary statement",about 10 µm
same,LPS-induced IL-1β-mRNA accumulation decreased to,[3]; [4],50%
same,LPS-induced NAP1/IL-8-mRNA accumulation decreased to,[3]; [4],20%
same,LPS-induced αTNF-mRNA accumulation decreased to,[3]; [4],10%
same,IC50,"5,12-lipoxygenase",45 µM
same,Efficacy (%),"NMRI mice; simultaneous, test concentration 1.2 %",26%
same,Efficacy (%),"NMRI mice; simultaneous, test concentration 3.6 %",52** %
same,Efficacy (%),"NMRI mice; therapeutic, test concentration 1.2 %",25%
same,Efficacy (%),"NMRI mice; therapeutic, test concentration 3.6 %",50** %
